Results: the supplement of paper PMC10331698
± gives the standard deviation of the averaged measurements.

Key:
Experiment in all cases: level (log10 ratio to DMSO vehicle control); higher = higher biomarker level / cell amount than vehicle control
Conditions in all cases: in DMSO
[1] = compound: CCN(CCO)S(=O)(=O)C(F)(F)C(F)(F)C(F)(F)C(F)(F)C(F)(F)C(F)(F)C(F)(F)C(F)(F)F [N-Ethyl-N-(2-hydroxyethyl)perfluorooctanesulfonamide]
Method: (§1)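 BioMAP Diversity Plus panel of 12 human primary cell co-culture systems (3C, 4H, LPS, SAg, BT, BF4T, BE3C, CASM3C, HDF3CGF, KF3CT, MyoF, Mphg). Compounds were added 1 h before stimulation and left for 24 h (MyoF 48 h; BT 72 h for soluble read-outs or 6 d for IgG). Biomarkers were read by ELISA, cytotoxicity by SRB, PBMC viability and proliferation by Alamar Blue. Each well value was divided by the mean of 8 DMSO control wells on the same plate and log10 transformed; duplicate blinded samples were tested at 4 concentrations.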

[2] = compound: FC(F)(F)C(F)(C(F)(F)F)C(F)(F)C(F)(F)CC1CO1 [3-(Perfluoro-3-methylbutyl)-1,2-propenoxide]
Method: as §1

[3] = compound: NC(=O)C(F)(F)C(F)(F)C(F)(F)F [Heptafluorobutyramide]
Method: as §1

[4] = compound: NC(=O)C(F)(F)C(F)(F)F [Pentafluoropropionamide]
Method: as §1

[5] = compound: O=C(O)C(F)(F)C(F)(F)C(F)(F)C(F)(F)C(F)(F)C(F)(F)C(F)(F)C(F)(F)C(F)(F)F [Perfluorodecanoic acid]
Method: as §1

[6] = compound: O=C(O)C(F)(F)C(F)(F)C(F)(F)C(F)(F)C(F)(F)C(F)(F)F [Perfluoroheptanoic acid]
Method: as §1

[7] = compound: O=C(O)C(F)(F)C(F)(F)OC(F)(F)F [Perfluoro-3-methoxypropanoic acid]
Method: as §1

Row | Test System | level (log10) ([1]; 6700 nM) | level (log10) ([1]; 20000 nM) | level (log10) ([2]; 6700 nM) | level (log10) ([2]; 20000 nM) | level (log10) ([3]; 6700 nM) | level (log10) ([3]; 20000 nM) | level (log10) ([3]; 60000 nM) | level (log10) ([4]; 6700 nM) | level (log10) ([4]; 20000 nM) | level (log10) ([4]; 60000 nM) | level (log10) ([5]; 6700 nM) | level (log10) ([5]; 20000 nM) | level (log10) ([6]; 6700 nM) | level (log10) ([6]; 20000 nM) | level (log10) ([6]; 60000 nM) | level (log10) ([7]; 6700 nM) | level (log10) ([7]; 20000 nM) | level (log10) ([7]; 60000 nM)
1 | lMphg:CD69 | -0.0715 ± 0.012 | -0.129 ± 0.0099 | -0.0115 ± 0.054 | -0.0375 ± 0.069 | -0.0155 ± 0.022 | -0.0145 ± 0.044 | 0.0115 ± 0.066 | -0.021 ± 0.0071 | -0.036 | 0.0125 ± 0.077 | -0.013 ± 0.054 | -0.055 ± 0.052 | -0.019 ± 0.038 | -0.021 ± 0.041 | -0.0205 ± 0.064 | -0.0495 ± 0.043 | -0.0005 ± 0.026 | 0.017 ± 0.04
2 | lMphg:CD106/VCAM-1 | -0.037 ± 0.03 | -0.0435 ± 0.035 | 0.005 | -0.0115 ± 0.022 | 0.011 ± 0.014 | 0.004 ± 0.0071 | 0.013 ± 0.0028 | 0.0015 ± 0.033 | -0.009 ± 0.021 | -0.0045 ± 0.043 | 0.004 ± 0.0014 | -0.0145 ± 0.053 | -0.0115 ± 0.005 | 0.001 ± 0.0014 | -0.0095 ± 0.032 | -0.0005 ± 0.035 | -0.0035 ± 0.021 | -0.0235 ± 0.0035
3 | lMphg:CXCL8/IL-8 | -0.047 ± 0.048 | -0.032 ± 0.016 | 0.0165 ± 0.035 | 0.052 ± 0.023 | 0.0095 ± 0.035 | -0.0195 ± 0.0064 | 0.032 ± 0.038 | 0.007 ± 0.0071 | 0.001 ± 0.04 | -0.004 ± 0.013 | 0.0415 ± 0.049 | 0.04 ± 0.023 | -0.0125 ± 0.0035 | 0.032 ± 0.0042 | 0.18 ± 0.035 | -0.03 ± 0.065 | -0.0275 ± 0.025 | -0.001 ± 0.044
4 | lMphg:IL-1alpha | -0.018 ± 0.054 | -0.0235 ± 0.018 | -0.038 ± 0.042 | 0.034 ± 0.085 | -0.034 ± 0.021 | -0.0015 ± 0.018 | 0.0475 ± 0.053 | -0.0005 ± 0.016 | -0.0055 ± 0.0092 | 0.0355 ± 0.083 | 0.0085 ± 0.0078 | 0.013 ± 0.02 | -0.0275 ± 0.042 | -0.0025 ± 0.0035 | 0.0145 ± 0.012 | -0.008 ± 0.03 | -0.0055 ± 0.033 | 0.0115 ± 0.005
5 | lMphg:M-CSF | -0.001 ± 0.0057 | 0.0105 ± 0.0035 | -0.0215 ± 0.021 | -0.005 ± 0.02 | -0.014 ± 0.018 | -0.034 ± 0.025 | -0.0135 ± 0.00071 | -0.0185 ± 0.0035 | -0.0285 ± 0.0021 | 0.002 ± 0.028 | 0.019 ± 0.021 | 0.0105 ± 0.037 | -0.006 ± 0.0014 | -0.001 ± 0.016 | 0.005 ± 0.0071 | -0.0075 ± 0.012 | -0.025 ± 0.0071 | -0.0025 ± 0.037
6 | lMphg:SRB | -0.0215 ± 0.0078 | -0.0435 ± 0.022 | -0.007 ± 0.014 | -0.0045 ± 0.0078 | -0.015 ± 0.0099 | -0.0025 ± 0.005 | 0 ± 0.02 | 0.004 ± 0.0071 | -0.0025 ± 0.0092 | -0.001 ± 0.0014 | 0.009 ± 0.0085 | 0.004 ± 0.0057 | -0.013 ± 0.02 | -0.01 ± 0.0028 | -0.002 ± 0.0014 | -0.006 ± 0.0014 | -0.0185 ± 0.005 | 0 ± 0.0028
7 | lMphg:SRB-Mphg | 0.0095 ± 0.00071 | 0.001 ± 0.021 | 0.0005 ± 0.0092 | 0.0075 ± 0.0021 | -0.038 ± 0.0071 | -0.0175 ± 0.0021 | 0.0155 ± 0.036 | -0.0135 ± 0.074 | 0.0555 ± 0.043 | 0.0595 ± 0.0078 | 0.0065 ± 0.00071 | -0.005 ± 0.0085 | -0.003 ± 0.014 | 0.005 ± 0.0071 | 0.004 ± 0.0042 | -0.007 ± 0.02 | -0.0165 ± 0.019 | -0.022 ± 0.025
8 | lMphg:sIL-10 | 0 ± 0.024 | -0.0505 ± 0.028 | -0.005 ± 0.028 | -0.04 ± 0.013 | 0.002 ± 0.05 | -0.0445 ± 0.071 | -0.011 ± 0.058 | -0.0095 ± 0.044 | -0.01 ± 0.028 | -0.0635 ± 0.12 | -0.018 ± 0.055 | -0.036 ± 0.028 | -0.017 ± 0.018 | 0.007 ± 0.027 | -0.0945 ± 0.032 | -0.0385 ± 0.013 | -0.064 ± 0.024 | -0.0485 ± 0.044
